From PubChem BioAssay (NCI)
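Tested at 5 concentrations; 48 h exposure; 96-well plates; endpoints linearly interpolated, else capped at highest concentration. The concentration for 50% growth inhibition is given as GI50. TGI is the concentration that stops growth completely.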

What was measured:
Test in all cases: NCI anticancer screen, dose series, 48 h
[1] = tested on: LOX IMVI melanoma
[2] = tested on: NCI/ADR-RES ovarian
[3] = tested on: CCRF-CEM leukemia
[4] = tested on: ACHN renal
[5] = tested on: MDA-MB-231 breast
[6] = tested on: SK-MEL-5 melanoma
[7] = tested on: A549 NSCLC
[8] = tested on: NCI-H23 lung
[9] = tested on: SR leukemia
[10] = tested on: EKVX NSCLC

Row | Compound | TGI [1] | TGI [2] | TGI [3] | TGI [4] | TGI [5] | TGI [6] | TGI [7] | TGI [8] | TGI [9] | TGI [10] | GI50 [9] | GI50 [1] | GI50 [2] | GI50 [3] | GI50 [6]
1 | c1ccc(C/C(=N\Nc2nc3ccccc3[nH]2)c2ccccn2)cc1 | 8.1 µM | 0.0936 µM | 0.375 µM | 3.06 µM | 13.4 µM | 4.65 µM | 11.9 µM | 13.5 µM | – | – | – | – | – | – | –
2 | CCOc1cc2c(cc1OC)c[n+](C)c1c3cc(OC)c(OC)cc3ccc21 | > 81.3 µM | – | > 65.8 µM | > 100 µM | – | > 100 µM | > 100 µM | > 100 µM | > 100 µM | > 100 µM | – | – | – | – | –
3 | c1ccc(CCCN2C3CCC2CN(CCOC(c2ccccc2)c2ccccc2)C3)cc1 | 24.5 µM | 21.3 µM | 39.2 µM | 26.2 µM | 21 µM | 11.8 µM | 27.2 µM | 23.6 µM | – | 19.9 µM | – | – | – | – | –
4 | Cc1cc2c(cc1Cl)SSc1cc(Cl)c(C)cc1S(=O)(=O)Nc1nc(N)nn1C(O)n1nc(N)nc1NS2(=O)=O | > 10 µM | > 10 µM | > 10 µM | > 10 µM | – | > 10 µM | > 10 µM | > 10 µM | > 10 µM | > 10 µM | – | – | – | – | –
5 | Cc1cnoc1/N=C1\C=C(Nc2oncc2C)C(=O)c2ccccc21 | > 100 µM | – | > 100 µM | > 100 µM | – | > 100 µM | > 100 µM | > 100 µM | > 100 µM | > 100 µM | – | – | – | – | –
6 | NC(=O)N/N=C(\Cc1cc(=O)oc2cc(O)ccc12)C(=O)Nc1ccccc1C(N)=O | > 100 µM | > 100 µM | > 100 µM | > 100 µM | > 100 µM | > 100 µM | > 100 µM | > 100 µM | – | > 100 µM | – | – | – | – | –
7 | Cc1cc(C)c2c(-c3ccccc3)cc(=O)[nH]c2c1 | > 100 µM | > 100 µM | > 100 µM | > 100 µM | > 100 µM | > 100 µM | > 100 µM | > 100 µM | – | > 100 µM | – | – | – | – | –
8 | COc1ccc(/C=C2\C(=O)N(C(=O)c3ccc(NC(C)=O)cc3)N=C2C)cc1OC | > 100 µM | – | > 100 µM | > 100 µM | – | > 100 µM | > 100 µM | > 100 µM | > 100 µM | > 100 µM | – | – | – | – | –
9 | O=[N+]([O-])C(/C(Cl)=C(/Cl)N1CCOCC1)=C1\Nc2ccccc2O1 | – | > 100 µM | > 100 µM | > 100 µM | > 100 µM | – | > 100 µM | > 100 µM | – | > 100 µM | – | – | – | – | –
10 | CC1=NN(c2ccccc2)C(=O)/C1=C1\SC(c2ccccc2)(c2ccccc2)c2ccccc21 | > 100 µM | > 100 µM | > 100 µM | > 100 µM | > 100 µM | > 100 µM | > 100 µM | > 100 µM | – | > 100 µM | – | – | – | – | –
11 | Cc1c2ccccc2c(=O)n2c(-c3ccccn3)cccc12 | > 100 µM | – | > 100 µM | > 100 µM | – | > 100 µM | > 100 µM | > 100 µM | > 100 µM | > 100 µM | – | – | – | – | –
12 | O=C1O/C(=C(\Br)c2ccc([N+](=O)[O-])cc2)c2ccccc21 | > 100 µM | > 100 µM | 62.7 µM | > 100 µM | – | > 100 µM | > 100 µM | > 100 µM | > 71.4 µM | > 100 µM | – | – | – | – | –
13 | COc1ccc(-c2nc(-c3nc4cc(Cl)c(Cl)cc4[nH]3)c3ccccn23)cc1 | > 100 µM | > 100 µM | > 100 µM | – | – | > 100 µM | – | – | > 100 µM | – | 6.26 µM | 3.6 µM | 3.9 µM | > 100 µM | 2.91 µM
14 | O=c1[nH]nc(-c2ccc3ccccc3c2)[nH]1 | > 100 µM | > 100 µM | > 100 µM | > 100 µM | – | – | > 100 µM | > 100 µM | > 100 µM | 64.4 µM | – | – | – | – | –
15 | CC(C)C(Sc1nc(-c2ccccc2)c(-c2ccccc2)[nH]1)C(=O)N/N=C/c1ccc(Cl)cc1 (centres undefined) | 28.9 µM | – | 85.4 µM | > 100 µM | – | 30.5 µM | 82.3 µM | 52.8 µM | > 100 µM | 67.6 µM | – | – | – | – | –
16 | CN(C)c1ccc(-c2c(C#N)c(-c3ccccc3)n(NS(=O)(=O)c3ccccc3)c(=O)c2C#N)cc1 | > 100 µM | > 100 µM | 83.5 µM | > 100 µM | > 100 µM | 46.8 µM | > 100 µM | – | – | > 100 µM | – | – | – | – | –
17 | CCCSc1ccc2[nH]c(N3C(=O)/C(=C/c4ccc(O)c(OC)c4)N=C3c3ccccc3)cc2c1 | > 100 µM | > 100 µM | 93.8 µM | > 100 µM | – | 16.1 µM | – | 61.5 µM | > 100 µM | 67.4 µM | – | – | – | – | –
18 | CC(C)NC1CCCCC2c3ccccc3C12O (centres undefined) | > 100 µM | – | > 100 µM | > 100 µM | – | > 100 µM | > 100 µM | > 100 µM | > 100 µM | > 100 µM | – | – | – | – | –
19 | CN(C)CC1CCC/C(=C\c2ccc(Cl)c(Cl)c2)C1=O (centres undefined) | – | 22.8 µM | 2.68 µM | 15.1 µM | 10.9 µM | 22.7 µM | 30.4 µM | 23.8 µM | – | 25.5 µM | – | – | – | – | –
